≈ marks a conversion by molar mass, not a printed value.
Assays:
Type in all cases: cell-based
MDA-MB-435 (breast) = experiment: Antineoplastic activity, tumor cell growth inhibition (sulforhodamine B); conditions: MDA-MB-435 cells, 48 hours, inhibition of growth
Source text: (§1) Antineoplastic activity for the compounds of this invention was established by evaluating the antineoplastic activity of a representative compound of this invention (Compound I) against six tumor cell lines in vitro. Briefly, tumor cells from six cell lines were placed in wells of a 96 well microtiter plate. The following tumor cell lines were used: A2780S (ovarian), A2780DDP (ovarian - resistant to cis-platin), A431 (vulva epidermoid origin), SW620 (colon), SKBR3 (breast), and MDA-MB-435 (breast). The tumors cells were grown in the presence of serial dilutions of the compound to be evaluated for 48 hours, and cell growth determined using a colorimetric procedure (sulforhrodamine B). The inhibition of growth was calculated compared to the number of cells at the time of test compound addition. Results are expressed as an IC50 (µg/ml). […] In particular, the compounds of this invention are useful against solid tumors, including sarcomas and carcinomas; and more particularly against astrocytomas, prostate cancer, breast cancer, colon cancer, small cell lung cancer, and ovarian cancer; and adult T-cell leukemia/lymphoma.

[1] = test system: A2780DDP (ovarian - resistant to cis-platin); experiment: as above; conditions: A2780DDP cells, 48 hours, inhibition of growth
Source text: as §1

SW620 (colon) = experiment: as above; conditions: SW620 cells, 48 hours, inhibition of growth
Source text: as §1

[2] = test system: A431 (vulva epidermoid origin); experiment: as above; conditions: A431 cells, 48 hours, inhibition of growth
Source text: as §1

A2780S (ovarian) = experiment: as above; conditions: A2780S cells, 48 hours, inhibition of growth
Source text: as §1

SKBR3 (breast) = experiment: as above; conditions: SKBR3 cells, 48 hours, inhibition of growth
Source text: as §1

Saccharomyces cerevisiae = experiment: Antifungal activity, microtiter broth dilution MIC; conditions: Saccharomyces cerevisiae ID ATCC 2601; 35 °C, 24-48 hours
Procedure: (§2) Antifungal activity for the compounds of this invention was established by evaluating a representative compound of this invention (Compound I) against several strains of fungi. Briefly the following procedure was used to evaluate such activity. A 96 U-bottom microtiter plate was filled (50 µl/well) with RPMI 1640. The compounds to be evaluated were placed in appropriate wells, and serial diluted in successive wells to provide 11 dilutions. The concentrations ranged from 64 through 0.06 µg/ml. An adjusted inoculum of fungi (50 µl) was added to each well and the plates were incubated at 35 °C for 24-48 hours. […]

Aspergillus flavus = experiment: Antifungal activity, microtiter broth dilution MIC; conditions: Aspergillus flavus ID ATCC 12963; 35 °C, 24-48 hours
Procedure: as §2

Candida tropicalis = experiment: Antifungal activity, microtiter broth dilution MIC; conditions: 35 °C, 24-48 hours
Procedure: as §2

[3] = test system: Filobasidiella neoformans; experiment: Antifungal activity, microtiter broth dilution MIC; conditions: Filobasidiella neoformans ID ATCC 7472; 35 °C, 24-48 hours
Procedure: as §2

Candida zeylanoided = experiment: Antifungal activity, microtiter broth dilution MIC; conditions: Candida zeylanoided ID 94-15; 35 °C, 24-48 hours
Procedure: as §2

Candida pseudotropicalis = experiment: Antifungal activity, microtiter broth dilution MIC; conditions: Candida pseudotropicalis ID ATCC 28838; 35 °C, 24-48 hours
Procedure: as §2

Aspergillus fumigatus = experiment: Antifungal activity, microtiter broth dilution MIC; conditions: Aspergillus fumigatus ID ATCC 26933; 35 °C, 24-48 hours
Procedure: as §2

Candida parapsilosis = experiment: Antifungal activity, microtiter broth dilution MIC; conditions: 35 °C, 24-48 hours
Procedure: as §2

Candida lusitaniae = experiment: Antifungal activity, microtiter broth dilution MIC; conditions: Candida lusitaniae ID 94-3; 35 °C, 24-48 hours
Procedure: as §2

Aspergillus niger = experiment: Antifungal activity, microtiter broth dilution MIC; conditions: Aspergillus niger ID S-430; 35 °C, 24-48 hours
Procedure: as §2

Cryptococcus neoformans = experiment: Antifungal activity, microtiter broth dilution MIC; conditions: Cryptococcus neoformans ID ATCC 90112; 35 °C, 24-48 hours
Procedure: as §2

Candida rugosa = experiment: Antifungal activity, microtiter broth dilution MIC; conditions: Candida rugosa ID 94-10; 35 °C, 24-48 hours
Procedure: as §2

Candida albicans = experiment: Antifungal activity, microtiter broth dilution MIC; conditions: 35 °C, 24-48 hours
Procedure: as §2

Candida glabrata = experiment: Antifungal activity, microtiter broth dilution MIC; conditions: Candida glabrata ID ATCC 90030; 35 °C, 24-48 hours
Procedure: as §2

SMILES: CO[C@H]1C[C@@H]2CC[C@@H](C)[C@@](O)(O2)[C@]2(O)C(=O)N3[C@@H](CCC[C@@H]32)C(=O)O[C@H]([C@H](C)C[C@@H]2CC[C@@H](O)[C@H](OC)C2)CC(=O)[C@H](C)/C=C(\C)[C@@H](O)[C@@H](OC)C(=O)[C@H](C)C[C@H](C)/C=C/C=C/C=C/1C [Compound I, (1S, 2R, 3R, 6S, 8S, 9E, 11E, 13E, 15S, 17R, 19R, 20R, 21E, 23R, 26S, 29S, 33R)-1,2, 30-Trihydroxy-26-[(1R)-2-[(1S, 3R, 4R)-4-hydroxy-3-methoxycyclohexyl]-1-methylethyl]-8, 19-dimethoxy-3,9,15, 17, 21, 23-hexamethyl-27, 36-dioxa-35-azatetracyclo[27.4.2.1.[2, 6].0 [33, 35]] hexatriaconta-9, 11, 13, 21-tetraene-18, 24, 28, 34-tetrone]
- IC50 (MDA-MB-435 (breast)): 27.28 µg/mL (≈ 29.8 µM)
- IC50 [1]: 6.51 µg/mL (≈ 7.12 µM)
- IC50 (SW620 (colon)): 24.84 µg/mL (≈ 27.2 µM)
- IC50 [2]: 20.46 µg/mL (≈ 22.4 µM)
- IC50 (A2780S (ovarian)): 8.756 µg/mL (≈ 9.58 µM)
- IC50 (SKBR3 (breast)): 7.029 µg/mL (≈ 7.69 µM)
- MIC (Saccharomyces cerevisiae): 8 µg/mL (≈ 8.75 µM)
- MIC (Aspergillus flavus): ≥64 µg/mL
- MIC (Candida tropicalis; Candida tropicalis ID 94-13): 16 µg/mL (≈ 17.5 µM)
- MIC (Candida tropicalis; Candida tropicalis ID 94-14): 8 µg/mL (≈ 8.75 µM)
- MIC [3]: ≥64 µg/mL
- MIC (Candida zeylanoided): 8 µg/mL (≈ 8.75 µM)
- MIC (Candida pseudotropicalis): 4 µg/mL (≈ 4.38 µM)
- MIC (Aspergillus fumigatus): ≥64 µg/mL
- MIC (Candida parapsilosis; Candida parapsilosis ID 94-8): 8 µg/mL (≈ 8.75 µM)
- MIC (Candida parapsilosis; Candida parapsilosis ID 94-9): 8 µg/mL (≈ 8.75 µM)
- MIC (Candida parapsilosis; Candida parapsilosis ID ATCC 90018): 8 µg/mL (≈ 8.75 µM)
- MIC (Candida lusitaniae): 4 µg/mL (≈ 4.38 µM)
- MIC (Aspergillus niger): ≥64 µg/mL
- MIC (Cryptococcus neoformans): 8 µg/mL (≈ 8.75 µM)
- MIC (Candida rugosa): 16 µg/mL (≈ 17.5 µM)
- MIC (Candida albicans; Candida albicans ID 94-1): 16 µg/mL (≈ 17.5 µM)
- MIC (Candida albicans; Candida albicans ID 1063): 16 µg/mL (≈ 17.5 µM)
- MIC (Candida albicans; Candida albicans ID 1117): 32 µg/mL (≈ 35 µM)
- MIC (Candida albicans; Candida albicans ID ATCC 90028): 16 µg/mL (≈ 17.5 µM)
- MIC (Candida albicans; Candida albicans ID C-83): ≥64 µg/mL
- MIC (Candida glabrata): 8 µg/mL (≈ 8.75 µM)
